Data as given in PMC4756062 (Clinical Pharmacokinetics, 2015).
Entries after “also recorded” stand apart in the source; their conditions may differ. Like-named read-outs stand apart in the source and are kept apart here.

Tests used:
[1] = type: in vivo, human (breast cancer patients); settings: for AUC(0-t): AUC0–24, plasma; for C trough: concentration before dosing; for C trough / C trough, ratio of weak to potent CYP2D6-inhibiting SSRI: 10 patients
[2] = Adverse effects recorded during the antidepressant switch study; type: in vivo, human (breast cancer patients)
[3] = after versus before the switch, median (range)
[4] = female, human, plasma, tamoxifen + potent CYP2D6-inhibiting SSRI (paroxetine or fluoxetine), median (range), dose corrected to 20 mg tamoxifen
[5] = female, human, plasma, C max, plasma, tamoxifen + potent CYP2D6-inhibiting SSRI (paroxetine or fluoxetine), median (range), dose corrected to 20 mg tamoxifen
[6] = plasma, tamoxifen + potent CYP2D6-inhibiting SSRI (paroxetine or fluoxetine), median (range)
[7] = plasma, after versus before the switch, median (range)
[8] = plasma, switch from paroxetine/fluoxetine to escitalopram
[9] = tamoxifen + potent CYP2D6-inhibiting SSRI (paroxetine or fluoxetine), median (range)
[10] = plasma, tamoxifen + potent CYP2D6-inhibiting SSRI (paroxetine or fluoxetine), median (range), dose corrected to 20 mg tamoxifen

Compound | AUC(0-t) [1, 4] [µM·h] | Cmax [1, 5] [nM] | C trough [1, 6] | AUC0–24, ratio of weak to potent CYP2D6-inhibiting SSRI [1, 7] | C max, ratio of weak to potent CYP2D6-inhibiting SSRI [1, 7] | C trough, ratio of weak to potent CYP2D6-inhibiting SSRI [1, 7] | further results
CC/C(=C(\c1ccc(O)cc1)c1ccc(OCCN(C)C)cc1)c1ccccc1 [4-OH-Tam, 4-hydroxytamoxifen] | 0.0638 | 3.46 | 2.47 (1.29–4.65) nM | 1.34 (0.88–1.87) | 1.42 (0.81–2.05) | 1.40 (0.82–2.06) | AUC0–24 ratio 4-OH-Tam to tamoxifen, ratio of weak to potent CYP2D6-inhibiting SSRI [1, 3]: 1.51 (1.08–1.67); AUC0–24 ratio 4-OH-Tam to tamoxifen, ratio of weak to potent CYP2D6-inhibiting SSRI ([1]; after versus before the switch, median (range), listed as 4-hydroxytamoxifen): ~ 1.5; Increase in AUC0–24 after the switch [1, 8]: 34%; Increase in Cmax after the switch [1, 8]: 42%; Increase in Ctrough after the switch [1, 8]: 40%; AUC0–24 ratio 4-OH-Tam to tamoxifen [1, 9]: 0.0109 (0.0053–0.014)
CC/C(=C(\c1ccccc1)c1ccc(OCCN(C)C)cc1)c1ccccc1 [Tamoxifen, reference compound] | 6.42 | 369 | 278 (128–557) nM |  |  |  | 
CN(C)CCC[C@@]1(c2ccc(F)cc2)OCc2cc(C#N)ccc21 [escitalopram, S-citalopram] |  |  |  |  |  |  | Hot flashes ([2]; tamoxifen-treated women, during co-administration): hot flashes were reported particularly during escitalopram co-administration; Safety of switching from paroxetine/fluoxetine to escitalopram (antidepressant-related adverse events, psychiatric relapse) ([2]; tamoxifen-treated women, escitalopram 10–20 mg/day, cross-tapering): safe and feasible; also recorded: No antidepressant-related adverse events or psychiatric relapse were noted; Discontinuation of treatment ([2]; ten tamoxifen-treated women): None of the ten women had to discontinue
CC/C(=C(\c1ccccc1)c1ccc(OCCNC)cc1)c1ccccc1 [ND-Tam, N-desmethyltamoxifen] |  |  | 446 (306–807) nM | 1.09 (0.75–1.27) | 1.09 (0.77–1.75) | 0.97 (0.76–1.37) | AUC0–24 [1, 10]: 10,149 (7744–20,107) nM·h; Cmax [1, 10]: 528 nM
CC/C(=C(\c1ccc(O)cc1)c1ccc(OCCNC)cc1)c1ccccc1 [Endoxifen, 4-hydroxy-N-desmethyl-tamoxifen] | 0.0992 | 5.46 | 5.20 (3.48–10.6) nM |  | 2.96 (1.50–7.44) | 2.80 (1.02–6.33) | AUC0–24 ratio endoxifen to ND-Tam, ratio of weak to potent CYP2D6-inhibiting SSRI [1, 3]: 3.33 (1.56–5.37); Fold higher endoxifen exposure after the switch, single patient ([1]; one person using 40 mg tamoxifen (dose corrected to 20 mg)): 2.9 fold; C max, ratio of weak to potent CYP2D6-inhibiting SSRI ([1]; plasma, after versus before the switch, median (range), listed as endoxifen): ~ 3; AUC0–24 ratio endoxifen to ND-Tam [1, 9]: 0.0113 (0.0065–0.014); AUC0–24 ratio endoxifen to tamoxifen [1, 9]: 0.0213 (0.0057–0.029)
